Legend:
[1] = biological target: T1, Hexim-1 binding to 7SK snRNP (Homo sapiens, UniProt O94992); test: RNA immunoprecipitation of 7SK snRNP by intracellular Hexim-1; assay type: cell-based; settings: HeLa-CD4-LTR-LacZ cells, 48 h
T1 construct: endogenous in cells; host or cells: HeLa-CD4-LTR-LacZ (RNA immunoprecipitation); HeLa-CD4-LTR-Luc (immunofluorescence)
From the text: (A) Sequence of the basic domains of HIV Tat HXB3, HIV Rev Bru and intracellular Hexim-1. […] Shown is confocal microscopy analysis of the subcellular localization of transfected FLAG-Tat or FLAG-Rev in the presence of DMSO or dCA in HeLa-CD4-LTR-Luc cells. Proteins were recognized with anti-FLAG and Alexa Fluor 568-tagged anti-IgG. Magnification 60×. Data are representative of n = 2 independent experiments. (C) Quantification of the nucleolar fluorescence of panel B using ImageJ. Data are the mean ± SEM from 3 to 4 different cells. […] HeLa-CD4-LTR-LacZ cells were infected with strain NL4-3 for 24 hours. The next day, compounds (dCA, 10 nM; KPT, 400 nM; and SCM, 10 nM) were added for 24 hours. Total, nuclear, and cytoplasmic mRNAs were extracted, and viral messages were determined by qRT-PCR. GAPDH was used for normalization. Data are the mean ± SD from n = 5 independent experiments. […] (G) Quantification of nuclear fluorescence of panel F using ImageJ. […] Statistical significance was determined using one-way ANOVA with post hoc Tukey’s test. ns, not significant; ***, P < 0.0001; **, P < 0.001.
Hexim-1 directly binds to cyclin T1 and is responsible for the inactivation of the kinase activity of P-TEFb ([35], [36]). […] Intracellular Hexim-1 was immunoprecipitated, and 7SK snRNP bound to Hexim-1 was extracted, reverse transcribed, and quantified by qRT-PCR as previously described ([42]) (Fig. 3E). […]

Trp^11 of Tat protein = biological target: T2, Trp^11 of Tat protein (Human immunodeficiency virus type 1 group M subtype B, UniProt P69697); test: Trp fluorescence assay of recombinant Tat; assay type: binding, HIV-1; settings: for effect on intrinsic Trp fluorescence of Tat: compound/Tat ratio of 7.5/1
T2 construct: pTatC6H-1 (NIH AIDS Reagent Program) plasmid encoding C-terminal 6xHistidine Tat1-86 (HXB3, subtype B); made in house; host or cells: E. coli BL21 (plasmid pTatC6H-1, NIH AIDS Reagent Program)
T2 sequence (P69697 whole entry): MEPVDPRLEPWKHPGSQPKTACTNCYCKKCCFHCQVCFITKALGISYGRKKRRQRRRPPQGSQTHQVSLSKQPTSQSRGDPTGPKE
From the text: Next, we investigated whether dCA mediated conformational changes in Tat. NMR studies have reported the fluorescence of Tat’s unique Trp^11 to be highly sensitive to conformational modifications ([2], [15]). As such, we assessed Tat fluorescence between wavelengths of 310 nm and 410 nm (Fig. 5A, left).
FIG 5 dCA stabilizes Tat structure. (A) Trp fluorescence assays. (Left) Schematic of the assay. (Center) DMSO, dCA (7.5× Tat concentration) or raltegravir (Ralt.; 7.5× Tat concentration) was incubated with Tat. The fluorescence of the Trp^11 of Tat protein was measured at the indicated wavelengths. Acrylamide (250 mM) was used as a quenching control of Tat fluorescence. (Right) Peak absorbance (λmax) versus increasing fold ratios of compounds to Tat protein. Data are representative of n = 3 independent experiments. (B) DARTS assays. Tat was incubated with DMSO or dCA, at increasing concentrations, in the presence of increasing concentrations of proteinase K (PK). […] Data are representative of n = 2 independent experiments. (C) Steady state of Tat in the presence of dCA in vivo. HeLa-CD4-LTR-Luc cells were incubated with recombinant Tat and then washed and incubated with the indicated compounds for 6 hours. […] (Left) Western blot representative of n = 4 independent experiments. MG132 was used as a positive control of Tat protection from degradation, and raltegravir was used as a negative control. (Right) Densitometry of the Tat band normalized to the actin band. Results represent the mean ± SEM from n = 4 independent experiments. Statistical significance was determined using one-way ANOVA with post hoc Tukey’s test. ns, not significant; ***, P < 0.0001; **, P < 0.001.
Recombinant Tat (2.5 μM) was incubated with different concentrations of dCA or raltegravir in a 96-well plate. The solution was excited at 280 nm, and the emission of Trp fluorescence was read from 310 to 410 nm. The background induced by the compounds alone or buffer of dilution was subtracted from the Trp signal. Acrylamide (250 mM) was used as a quencher of the fluorescence.

T1 sequence (O94992 whole entry): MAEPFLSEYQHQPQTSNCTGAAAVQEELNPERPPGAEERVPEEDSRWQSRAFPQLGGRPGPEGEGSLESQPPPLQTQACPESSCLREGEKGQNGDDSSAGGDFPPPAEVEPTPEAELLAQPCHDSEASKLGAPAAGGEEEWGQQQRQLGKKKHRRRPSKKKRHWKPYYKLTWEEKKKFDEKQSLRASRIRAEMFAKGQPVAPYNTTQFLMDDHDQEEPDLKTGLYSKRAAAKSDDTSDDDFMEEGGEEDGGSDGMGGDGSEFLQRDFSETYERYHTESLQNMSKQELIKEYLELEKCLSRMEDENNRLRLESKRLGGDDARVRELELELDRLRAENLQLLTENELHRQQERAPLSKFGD

Compound	interaction between Hexim-1 and 7SK snRNP [1]	λmax of Tat Trp fluorescence (Trp^11 of Tat protein; compound/Tat ratio 7.5/1, Tat alone 360 nm)	effect on intrinsic Trp fluorescence of Tat (Trp^11 of Tat protein)	I330/350 ratio of Tat Trp fluorescence (Trp^11 of Tat protein; dCA/Tat ratio of 7.5/1, Tat alone 0.73)
C[C@@](Cc1ccc(O)c(O)c1)(NN)C(=O)O.O [SCM, S-(−)-carbidopamonohydrate, reference compound]	similarly detected	–	–	–
CN(C)C1CC23CCC4(O2)C(=CCC2(C)C(c5ccc6ccncc6c5)=CCC24)C=C3C(O)C1O (stereo not drawn) [dCA, didehydro-cortistatin A]	similarly detected	350 nm	decreased intensity of the Trp fluorescence	0.893
Cc1nnc(C(=O)NC(C)(C)c2nc(C(=O)NCc3ccc(F)cc3)c(O)c(=O)n2C)o1 [raltegravir, reference compound]	–	–	no effect on the intrinsic fluorescence of Tat	–

Reference: publication PMC6368365, “Didehydro-Cortistatin A Inhibits HIV-1 by Specifically Binding to the Unstructured Basic Region of Tat” (mBio, 2019)
